A short description of this data set: Plasma concentrations in healthy subjects (Cohort 4). It counts as in vivo. The conditions noted are these: human, intravenous, 112 mg. Here is the method: Pharmacokinetics: Concentrations of Compound A in plasma, and CSF, and pharmacokinetics parameters.
Following a single 9-hour IV infusion of 112 mg to healthy adult subjects in Cohort 4, Compound A plasma concentration-time profile was consistent with that observed in Cohort 1. At 6 hours after the start of infusion, mean ratio CSF/plasma concentration of Compound A was estimated to be about 2.8%.

The structures appear in SMILES notation.

Drawing on patent publication US20220339143A1, “TAK-925 FOR USE IN TREATING NARCOLEPSY” (Takeda Pharmaceutical Company Limited, priority 2019, published 2022), this text covers concentration for one compound.

On to `COC(=O)N1CCC[C@H](NS(C)(=O)=O)[C@@H]1CO[C@H]1CC[C@@H](c2ccccc2)CC1` [Compound A, methyl (2R,3S)-3-((methylsulfonyl)amino)-2-(((cis-4-phenylcyclohexyl)oxy)methyl)piperidine-1-carboxylate], for which, under “Mean”, the concentration at 0.5 h was 119 ng/mL, the concentration at 1 h is 162 ng/mL, the concentration at 1.5 h worked out at 193 ng/mL and the concentration at 2 h stood at 186 ng/mL. Where the note is “Mean”, this compound came in with a concentration at 3 h of 216 ng/mL, a concentration at 4 h of 234 ng/mL, a concentration at 6 h of 234 ng/mL and a concentration at 8 h of 177 ng/mL. The compound further showed a concentration at 9 h (Mean) of 184 ng/mL. For the same compound, for the setting “Median”, the concentration at 0.5 h was 116 ng/mL, the concentration at 1 h is 156 ng/mL, the concentration at 1.5 h amounted to 194 ng/mL and the concentration at 2 h stood at 183 ng/mL. For the setting “Median”, the concentration at 3 h was found to be 218 ng/mL, the concentration at 4 h was 224 ng/mL, the concentration at 6 h was 227 ng/mL and the concentration at 8 h worked out at 168 ng/mL. Further, the concentration at 9 h (Median) stood at 182 ng/mL.
